{
  "source": "patent US20260034185A1",
  "about": "“POLYPODYIUM LEUCOTOMOS AND LARIX DECIDUA FOR USE IN THE PREVENTION OF DAMAGE FROM UVA, UVB, UVC AND/OR IR RAYS” (Unifarco S.p.A., priority 2022, published 2026)",
  "origin": "cited, not measured here",
  "molecular_target": "T1, caspase-1 (Homo sapiens, UniProt P29466)",
  "T1 construct": "literature Promega G9951",
  "T1 sequence (P29466 120-297 limits assumed)": "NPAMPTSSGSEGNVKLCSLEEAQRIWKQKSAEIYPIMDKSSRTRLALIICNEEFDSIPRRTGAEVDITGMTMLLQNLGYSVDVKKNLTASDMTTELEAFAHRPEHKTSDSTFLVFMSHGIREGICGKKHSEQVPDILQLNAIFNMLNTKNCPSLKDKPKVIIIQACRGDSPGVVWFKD",
  "T1 sequence (P29466 317-404 limits assumed)": "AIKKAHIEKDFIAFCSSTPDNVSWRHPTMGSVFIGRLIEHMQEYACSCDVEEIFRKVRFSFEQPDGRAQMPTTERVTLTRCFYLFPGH",
  "conditions": "inhibitor included in the Caspase-Glo 1 kit; does not substantially inhibit cross-reactive caspases",
  "data": [
    {"substance": "Ac-YVAD-CHO", "values": [
      {"measurement": "inhibition of caspase-1 activity", "result": 99, "unit": "%"}
    ]}
  ]
}
